From PubChem BioAssay (NCI)
“And” between values parts separate entries of the source, which are not always exact repeats. Identical values can stand only once.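 How tested: cells in 96-well plates exposed to compound for 48 hours at five concentrations. GI50 marks 50% less growth. The concentration for full growth arrest is given as TGI.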 Where a SMILES comes first, the peptide text is derived from it. [ ]: non-standard residue; d: D form. The star is where a group is joined. Phe(4-NO2) = N[CH](Cc1ccc([N+](=O)[O-])cc1)C(=O)O; Boc = CC(C)(C)OC(=O)*; OBn = c1ccc(CO*)cc1

Legend:
Experiment in all cases: inhibition of tumour cell growth, NCI panel, 48 h
[1] = test system: HCC-2998 colon
[2] = test system: OVCAR-5 ovarian
[3] = test system: MALME-3M melanoma
[4] = test system: UACC-257 melanoma
[5] = test system: NCI-H23 lung
[6] = test system: SF-268 CNS
[7] = test system: MDA-MB-231 breast
[8] = test system: SNB-19 CNS
[9] = test system: UACC-62 melanoma
[10] = test system: CAKI-1 renal

In the case of `CCN1CC(C)Cn2c(=O)[nH]c3cc(Br)cc1c32` (centres undefined), the TGI [1] is reported as over 100 µM, the TGI [2] is reported as over 100 µM and the TGI [3] is reported as over 100 µM. The TGI [4] was over 100 µM, the TGI [5] was over 100 µM and the TGI [6] was over 100 µM. It also gave a TGI [7] of over 100 µM, a TGI [8] of over 100 µM and a TGI [9] of over 100 µM. The TGI [10] was over 100 µM.

Compound `C=CC[C@H]1[C@@H](O[Si](C)(C)C(C)(C)C)[C@H](n2ccc(=O)[nH]c2=O)O[C@@H]1CO[Si](C)(C)C(C)(C)C` has a TGI [1] of 3.74 µM, a TGI [2] of 3.91 µM and a TGI [3] of 9.04 µM. The TGI [4] was 5.34 µM, the TGI [5] was 5.93 µM and the TGI [6] was 8.64 µM. The TGI [7] was 5.4 µM, the TGI [8] was 6.76 µM and the TGI [9] was 3.5 µM. It also gave a TGI [10] of 4.42 µM.

`COc1cc2c(cc1C[N+](C)(C)CSc1ccccc1)-c1ccccc1CC2` showed a TGI [1] of 13.6 µM, a TGI [2] of 24.3 µM and a TGI [3] of 6.23 µM. For the same compound, the TGI [4] was 12.3 µM, the TGI [5] was 14.4 µM and the TGI [6] was 18.5 µM. For the same compound, the TGI [7] was 10 µM, the TGI [8] was 10.7 µM and the TGI [9] was 7.79 µM. The TGI [10] was 26.4 µM.

For `c1ccc(CNc2c3c(nc4ccccc24)CCC3)cc1`, the TGI [1] was 26.5 µM, the TGI [2] was 51.4 µM and the TGI [3] was 33.4 µM. The TGI [4] was 29.3 µM, the TGI [5] was 46.2 µM and the TGI [6] was 46.6 µM. The TGI [7] was 27.1 µM, the TGI [8] was 67.7 µM and the TGI [9] was 28 µM. The TGI [10] was 45.3 µM.

`COc1ccc(N(C(=O)Nc2ccc(Cl)c(Cl)c2)c2ccccc2)cc1` gave a TGI [1] of over 10 µM, a TGI [2] of over 10 µM and a TGI [3] of over 10 µM. The TGI [4] was over 10 µM, the TGI [5] was over 10 µM and the TGI [6] was over 10 µM. For the same compound, the TGI [7] was over 10 µM, the TGI [8] was over 10 µM and the TGI [9] was over 10 µM. For the same compound, the TGI [10] was over 10 µM.

`O=C(Nc1ccccc1)O/N=C(/CBr)c1ccccc1` was tested, and the TGI [1] was 36.6 µM, the TGI [2] was 36.1 µM and the TGI [3] was 33.9 µM. It also gave a TGI [4] of 35.5 µM, a TGI [5] of 26.2 µM and a TGI [6] of 47.7 µM. For the same compound, the TGI [7] was 29.3 µM, the TGI [8] was 53.9 µM and the TGI [9] was 26.7 µM. It also gave a TGI [10] of 31.7 µM.

Work on `OC(C1CCC=NN1C(O)(C(F)(F)F)C(F)(F)F)(C(F)(F)F)C(F)(F)F` (centres undefined) yielded a TGI [1] of over 10 µM, a TGI [2] of over 10 µM and a TGI [3] of over 10 µM. The TGI [4] was over 10 µM, the TGI [5] was over 10 µM and the TGI [6] was over 10 µM. The TGI [7] was over 10 µM, the TGI [8] was over 10 µM and the TGI [9] was over 10 µM. The TGI [10] was over 10 µM.

In the case of `CCC1C(=O)C[C@H]2[C@@H]3C(O)CC4=CC(=O)CC[C@]4(C)[C@H]3CC[C@]12C` (some centres undefined), the TGI [1] is reported as over 50 µM, the TGI [2] is reported as over 50 µM and the TGI [3] is reported as over 50 µM. The TGI [4] was over 50 µM, the TGI [5] was over 50 µM and the TGI [6] was over 50 µM. For the same compound, the TGI [7] was over 50 µM, the TGI [8] was over 50 µM and the TGI [9] was over 50 µM. It also gave a TGI [10] of over 50 µM.

For `COc1cc(-c2nc3cc(F)ccc3s2)ccc1O`, the TGI [1] was 55.5 µM, the TGI [2] was over 100 µM and the TGI [3] was over 100 µM. The TGI [4] was 66.3 µM, the TGI [5] was over 100 µM and the TGI [6] was over 100 µM. The TGI [7] was over 100 µM, the TGI [8] was over 100 µM and the TGI [9] was over 100 µM. The TGI [10] was over 100 µM.

For `COC(=O)CCC(NC(=O)OC(C)(C)C)C(=O)NC(Cc1ccc([N+](=O)[O-])cc1)C(=O)NCC(=O)OCc1ccccc1` (centres undefined) (Boc-Glu(OMe)-[Phe(4-NO2)]-Gly-OBn; configuration not given here), the TGI [1] was over 100 µM, the TGI [2] was over 100 µM and the TGI [3] was over 100 µM. For the same compound, the TGI [4] was over 100 µM, the TGI [5] was over 100 µM and the TGI [6] was over 100 µM. The TGI [7] was over 91.6 µM, the TGI [8] was over 100 µM and the TGI [9] was over 31.6 µM. It also gave a TGI [10] of over 100 µM.

`CCCCOC(=O)C(=O)C(CCC(=O)c1ccc(C)cc1)C(=O)C=C(C)C` (centres undefined) was tested, and the TGI [1] was over 100 µM, the TGI [2] was over 100 µM and the TGI [3] was over 100 µM. For the same compound, the TGI [4] was over 100 µM, the TGI [5] was over 100 µM and the TGI [6] was over 100 µM. The TGI [7] was over 100 µM, the TGI [8] was over 100 µM and the TGI [9] was over 100 µM. It also gave a TGI [10] of over 100 µM.

`CC(C)C[C@H](NC(=O)[C@H](Cc1cccc2ccccc12)NC(=O)N1CCOCC1)B(O)O` gave a GI50 [1] of 0.00158 µM, a TGI [1] of 0.00302 µM and a GI50 [2] of 0.00186 µM. The TGI [2] was 0.00534 µM and < 0.0405 µM, the GI50 [3] was 0.000373 µM and the TGI [3] was 0.00306 µM and < 0.0169 µM. It also gave a GI50 [4] of 0.00172 µM, a TGI [4] of 0.00495 µM and a GI50 [5] of 0.00188 µM. It also gave a TGI [5] of 0.0076 µM, a GI50 [6] of 0.000925 µM and a TGI [6] of 0.00328 µM. It also gave a GI50 [7] of 0.00188 µM, a TGI [7] of 0.00398 µM and a TGI [8] of over 100 µM. For the same compound, the GI50 [9] was 0.00129 µM, the TGI [9] was 0.00338 µM and the GI50 [10] was 0.00283 µM. The TGI [10] was 0.0147 µM and 0.0371 µM.

`CC(=O)Oc1ccc(/C=C/C(=O)O[C@@H](C)[C@H](C)OC(=O)/C=C/c2ccc(OC(C)=O)c(OC(C)=O)c2)cc1OC(C)=O` gave a TGI [1] of 50.4 µM, a TGI [2] of 58.8 µM and a TGI [3] of 63.5 µM. For the same compound, the TGI [4] was 65.1 µM, the TGI [5] was 25.8 µM and the TGI [6] was over 100 µM. It also gave a TGI [7] of over 100 µM, a TGI [8] of over 100 µM and a TGI [9] of 33.8 µM. For the same compound, the TGI [10] was over 100 µM.

For `COc1ccc(N2C=Nn3c(nc4sc(C)c(C)c4c3=O)C2)cc1`, the TGI [1] was over 100 µM, the TGI [2] was over 100 µM and the TGI [3] was over 100 µM. It also gave a TGI [4] of over 100 µM, a TGI [5] of over 100 µM and a TGI [6] of over 100 µM. It also gave a TGI [7] of over 100 µM, a TGI [8] of over 100 µM and a TGI [9] of over 100 µM. The TGI [10] was over 100 µM.

Compound `Oc1ccc(Cl)cc1C1=N/C(=N\CN2CCN(C/N=C3/N=C(c4cc(Cl)ccc4O)CC(c4ccccc4)N3)CC2)NC(c2ccccc2)C1` (centres undefined) has a TGI [1] of over 100 µM, a TGI [2] of over 100 µM and a TGI [3] of over 100 µM. The TGI [4] was over 100 µM, the TGI [5] was over 100 µM and the TGI [6] was over 100 µM. The TGI [7] was over 100 µM, the TGI [8] was over 100 µM and the TGI [9] was over 100 µM. It also gave a TGI [10] of 97.6 µM.

Compound `Cn1ccnc1Sc1ccc(/C=N/NC(=O)c2ccccc2O)cc1[N+](=O)[O-]` has a TGI [1] of over 100 µM, a TGI [2] of over 100 µM and a TGI [3] of over 100 µM. For the same compound, the TGI [4] was over 100 µM, the TGI [5] was over 100 µM and the TGI [6] was over 100 µM. It also gave a TGI [7] of over 100 µM, a TGI [8] of over 100 µM and a TGI [9] of over 100 µM. The TGI [10] was over 100 µM.

`N#CC1=C2Sc3ccccc3N2[C@H](c2ccccc2)[C@H]2COC(=O)[C@@H]12` gave a TGI [1] of over 100 µM, a TGI [2] of over 100 µM and a TGI [3] of 81.8 µM. The TGI [4] was over 100 µM, the TGI [5] was over 100 µM and the TGI [6] was 74.1 µM. For the same compound, the TGI [7] was over 100 µM, the TGI [8] was over 100 µM and the TGI [9] was over 100 µM. The TGI [10] was 52.8 µM.
